Measured values taken from patent US7034056B2, “Aryl and biaryl compounds having MCH modulatory activity” (Pharmacopeia Drug Discovery, inc., priority 2001, dated 2006).
Like-named read-outs stand apart in the source and are kept apart here.

Target: T1, hMCHR (MCH receptor) (Homo sapiens, UniProt Q99705)
T1 construct: (or internally produced); host or cells: CHO (Chinese hamster ovary) cells, membrane preparation
Assay: MCH Assay PCOP Protocol ([125I]-MCH SPA binding to hMCHR-CHO membranes);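 as to Activity (Ki range): A 0.4–50 nM B 51–500 nM C 501–2500 nM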
Method in brief: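 SPA binding with 10 μg hMCHR-CHO membranes and WGA-SPA beads in 25 mM HEPES pH 7.4, 10 mM NaCl, 10 mM MgCl2, 5 mM MnCl2, 0.1% BSA.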

[1] = [125I]-MCH 0.5 nM, hMCHR-CHO membranes, read-out: Activity (ranges of Ki values)
[2] = [125I]-MCH binding to hMCHR-CHO membranes, class symbols for ranges of Ki, read-out: Activity (Ki range)
[3] = [125I]-MCH SPA binding, hMCHR-CHO membranes, Ki class ranges, read-out: Activity (range of Ki)

T1 sequence (Q99705 whole entry): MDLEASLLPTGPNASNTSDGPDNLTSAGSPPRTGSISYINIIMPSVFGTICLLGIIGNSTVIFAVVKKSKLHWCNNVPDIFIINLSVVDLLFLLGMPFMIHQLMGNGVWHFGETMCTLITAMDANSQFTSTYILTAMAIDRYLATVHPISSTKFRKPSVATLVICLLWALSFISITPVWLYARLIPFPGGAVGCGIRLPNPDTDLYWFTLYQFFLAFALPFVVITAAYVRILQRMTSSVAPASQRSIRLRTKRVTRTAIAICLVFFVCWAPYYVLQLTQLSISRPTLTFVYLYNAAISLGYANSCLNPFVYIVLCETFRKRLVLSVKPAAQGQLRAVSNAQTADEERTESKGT

| Ki [1] [nM] | Ki [2] [nM] | SMILES | also measured |
| --- | --- | --- | --- |
| 51 to 500 | – | COc1cc(-c2cccc(C(CCNC3CCCC3)CNC(=O)Nc3cc(Cl)cc(Cl)c3)c2)cc(OC)c1OC (centres unmarked) [Example 153] | – |
| – | 51 to 500 | CN(C)CCCNCCC(CNC(=O)Nc1cc(Cl)cc(Cl)c1)c1ccc(-c2cccs2)cc1 (centres unmarked) [Example 231] | – |
| – | 51 to 500 | O=C(NCC(CCNC1CCCC1)c1ccc(-c2cc(Cl)cc(Cl)c2)cc1)Nc1cc(Cl)cc(Cl)c1 (centres unmarked) [Example 236] | – |
| 0.4 to 50 | – | CNCCC(CNC(=O)Nc1ccccc1)c1ccc(-c2cccc(C#N)c2)cc1 (centres unmarked) [Example 57] | – |
| – | 51 to 500 | CN(C)CCCNCCC(CNC(=O)Nc1cc(Cl)cc(Cl)c1)c1ccc(-c2ccc(Cl)cc2)cc1 (centres unmarked) [Example 246] | – |
| 501 to 2500 | – | Cc1ccc(-c2cccc(C(CCNCCCN(C)C)CNC(=O)Nc3cc(Cl)cc(Cl)c3)c2)cc1 (centres unmarked) [Example 162] | – |
| 0.4 to 50 | – | N#Cc1cccc(-c2ccc(C(CCNC3CC3)CNC(=O)Nc3cc(Cl)cc(Cl)c3)cc2)c1 (centres unmarked) [Example 76] | – |
| – | 501 to 2500 | O=C(NCC(CCNC1CCC1)c1ccc(Cl)c(Cl)c1)Nc1ccc(F)c(Cl)c1 (centres unmarked) [Example 263] | – |
| 0.4 to 50 | – | O=C(NCC(CCNC1CCCC1)c1ccc(-c2ccc[n+]([O-])c2)cc1)Nc1cc(Cl)cc(Cl)c1 (centres unmarked) [Example 94] | – |
| – | 51 to 500 | Cc1ccc(C(CCNC2CCCC2)CNC(=O)Nc2cc(Cl)cc(Cl)c2)cc1 (centres unmarked) [Example 271] | – |
| 0.4 to 50 | – | N#Cc1cccc(-c2ccc(C(CCNC3CC3)CNC(=O)Nc3cccc(Cl)c3)cc2)c1 (centres unmarked) [Example 43] | – |
| – | 51 to 500 | CN(C)CCCNCCC(CNC(=O)Nc1cc(Cl)cc(Cl)c1)c1ccc(-c2ccccc2)cc1 (centres unmarked) [Example 233] | – |
| 0.4 to 50 | – | CNCCC(CNC(=O)Nc1ccc(Cl)cc1)c1ccc(-c2cccc(C#N)c2)cc1 (centres unmarked) [Example 64] | – |
| 501 to 2500 | – | C[N+](C)([O-])CCC(CNC(=O)Nc1cc(Cl)cc(Cl)c1)c1ccc(-c2ccc[n+]([O-])c2)cc1 (centres unmarked) [Example 40] | – |
| – | 501 to 2500 | O=C(NCC(CCNC1CCC1)c1ccc(Cl)c(Cl)c1)Nc1ccc(F)c(F)c1 (centres unmarked) [Example 265] | – |
| 51 to 500 | – | CN(C)CCCNCCC(CNC(=O)Nc1cc(Cl)cc(Cl)c1)c1cccc(-c2ccc(Cl)cc2)c1 (centres unmarked) [Example 151] | – |
| – | 51 to 500 | Cc1ccc(C(CCNC2CCC2)CNC(=O)Nc2cc(C(F)(F)F)cc(C(F)(F)F)c2)cc1 (centres unmarked) [Example 274] | – |

The next lines start with the molecule.

| SMILES | Ki [1] [nM] | Ki [2] [nM] | also measured |
| --- | --- | --- | --- |
| Cc1cc(C)cc(NC(=O)NCC(CCN2CCC(N3CCCCC3)CC2)c2ccc(Cl)c(Cl)c2)c1 (centres unmarked) [Example 377] | – | 501 to 2500 | – |
| O=C(NCC(CCN1CCC(NC(=O)C2CCC2)C1)c1ccc(Cl)c(Cl)c1)Nc1cc(Cl)cc(Cl)c1 (centres unmarked) [Example 181] | 51 to 500 | – | – |
| Cc1ccc(C(CCN2CCC(N3CCCCC3)CC2)CNC(=O)Nc2cc(C(F)(F)F)cc(C(F)(F)F)c2)cc1 (centres unmarked) [Example 443] | – | – | Ki [3]: 51 to 500 nM |
| CN(C)CCCNCCC(CNC(=O)Nc1cc(Cl)cc(Cl)c1)c1cccc(-c2ccccc2Cl)c1 (centres unmarked) [Example 176] | 501 to 2500 | – | – |
| O=C(NCC(CCNCCc1ccc(O)cc1)c1ccc(Cl)c(Cl)c1)Nc1cccc(C(F)(F)F)c1 (centres unmarked) [Example 293] | – | 51 to 500 | – |
| CN(C)CCCNCCC(CNC(=O)Nc1cccc(C(F)(F)F)c1)c1ccc(Cl)c(Cl)c1 (centres unmarked) [Example 310] | – | 501 to 2500 | – |
| Cc1ccc(C(=O)NCC(CCN2CCCCC2)c2ccc(Cl)c(Cl)c2)cc1 (centres unmarked) [Example 450] | – | – | Ki [3]: 501 to 2500 nM |
| O=C(NCC(CCNC1c2ccccc2CC1O)c1ccc(Cl)c(Cl)c1)c1cc(C(F)(F)F)cc(C(F)(F)F)c1 (centres unmarked) [Example 420] | – | – | Ki [3]: 501 to 2500 nM |
| COCC(=O)NC1CCN(CCC(CNC(=O)Nc2cc(Cl)cc(Cl)c2)c2ccc(Cl)c(Cl)c2)C1 (centres unmarked) [Example 188] | 51 to 500 | – | – |
| O=C(NCC(CCN1CCCCC1)c1ccc(Cl)c(Cl)c1)c1cccc(Cl)c1 (centres unmarked) [Example 447] | – | – | Ki [3]: 501 to 2500 nM |
| O=C(NCC(CCN1CCC(NC(=O)c2ccno2)C1)c1ccc(Cl)c(Cl)c1)Nc1cc(Cl)cc(Cl)c1 (centres unmarked) [Example 209] | 501 to 2500 | – | – |
| O=C(NCC(CCNCCc1c[nH]c2ccccc12)c1ccc(Cl)c(Cl)c1)c1cc(C(F)(F)F)cc(C(F)(F)F)c1 (centres unmarked) [Example 400] | – | 501 to 2500 | – |
| CCNC(=O)NC1CCN(CCC(CNC(=O)Nc2cc(Cl)cc(Cl)c2)c2ccc(Cl)c(Cl)c2)C1 (centres unmarked) [Example 316] | – | 501 to 2500 | – |
| Cc1ccc(C(CCN2CCCCC2)CNC(=O)Nc2cc(C)cc(C)c2)cc1 (centres unmarked) [Example 355] | – | 501 to 2500 | – |
| CCN(CC)CCC(CNC(=O)c1cc(C(F)(F)F)cc(C(F)(F)F)c1)c1ccc(Cl)c(Cl)c1 (centres unmarked) [Example 412] | – | 501 to 2500 | – |
| O=C(NCC(CCN1CCC(N2CCCCC2)CC1)c1ccc(Cl)c(Cl)c1)Nc1ccc([N+](=O)O)cc1 (centres unmarked) [Example 315] | – | 51 to 500 | – |
| O=C(NCC(CCN1CCC(N2CCCCC2)CC1)c1ccc(Cl)c(Cl)c1)Nc1cc(C(F)(F)F)ccc1F (centres unmarked) [Example 373] | – | 501 to 2500 | – |
| CCN1CCCC1CNCCC(CNC(=O)c1cc(C(F)(F)F)cc(C(F)(F)F)c1)c1ccc(Cl)c(Cl)c1 (centres unmarked) [Example 407] | – | 501 to 2500 | – |
